For orientation: IC50 means the point on the concentration scale where inhibition reaches its midpoint. A lower IC50 goes with greater potency. What is called ED50 is the dose at which the effect has come halfway, by size or by number of responders. Low values mean an effect at a small dose, high ones a need for a large dose. By bioavailability is commonly meant dose-corrected exposure relative to a reference, in per cent.

One data set has as its target Mu-type opioid receptor (Homo sapiens, UniProt P35372). Kind of data set: Binding affinity to mu opioid receptor.
Data set [1] addresses Sodium-dependent serotonin transporter (Homo sapiens, UniProt P31645). Kind of data set: Inhibition of SERT mediated 5-hydroxytryptamine uptake.
Data set [2] concerns the target Sodium-dependent noradrenaline transporter (Homo sapiens, UniProt P23975). In words: Inhibition of NET mediated norepinephrine uptake.
Data set [3] can be described thus: Stability in rat liver microsome after 60 mins. The class given is ADME. The note with it: liver microsomes, read-out: Stability.
Data set [4] in a line: Stability in rat liver S9 fraction after 60 mins. The class given is ADME, subcellular. The conditions noted are these: read-out: Stability.
Data set [5] is described as follows: Stability in human liver microsome after 60 mins. The class given is ADME. The conditions noted are these: liver microsomes, read-out: Stability. For orientation: Microsomes from liver hold many membrane-bound enzymes, among them those of drug oxidation.
Data set [6] is described as follows: Stability in human liver S9 fraction after 60 mins. The note with it: read-out: Stability. The class given is ADME, subcellular.
In data set [7] the test system is Rattus norvegicus. In words: Analgesic activity in iv dosed Sprague-Dawley rat assessed as duration of effect by tail-flick model of pain. The data set is classed as functional.
For data set [8], the system named is Rattus norvegicus. In words: Analgesic activity in iv dosed Sprague-Dawley rat by tail-flick model of pain. The class given is functional.
A short description of data set [9]: Bioavailability in […] dosed Sprague-Dawley rat. The class given is ADME, organism-based. The note with it: in vivo.
Data set [10] has as its system Rattus norvegicus. In words: Toxicity in iv dosed Sprague-Dawley rat. The class given is organism-based. The conditions noted are these: in vivo.

Sequence of Sodium-dependent serotonin transporter (P31645 whole entry): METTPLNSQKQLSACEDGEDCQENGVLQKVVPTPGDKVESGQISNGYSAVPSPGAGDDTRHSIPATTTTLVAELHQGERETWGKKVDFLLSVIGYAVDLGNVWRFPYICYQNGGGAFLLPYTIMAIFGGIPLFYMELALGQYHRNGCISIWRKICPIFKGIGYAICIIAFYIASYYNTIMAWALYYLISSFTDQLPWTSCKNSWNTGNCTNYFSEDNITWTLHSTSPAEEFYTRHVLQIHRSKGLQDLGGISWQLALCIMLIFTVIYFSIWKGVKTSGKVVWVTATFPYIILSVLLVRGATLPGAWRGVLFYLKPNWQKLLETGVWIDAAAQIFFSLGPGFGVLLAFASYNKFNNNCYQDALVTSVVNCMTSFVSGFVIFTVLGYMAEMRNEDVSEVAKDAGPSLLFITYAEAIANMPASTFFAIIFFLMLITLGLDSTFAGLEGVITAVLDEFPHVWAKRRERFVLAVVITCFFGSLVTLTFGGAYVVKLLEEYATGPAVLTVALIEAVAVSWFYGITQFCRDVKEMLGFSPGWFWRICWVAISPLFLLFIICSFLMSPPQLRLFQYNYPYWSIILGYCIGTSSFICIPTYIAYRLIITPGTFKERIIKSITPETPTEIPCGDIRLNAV
Sequence of Mu-type opioid receptor (P35372 whole entry): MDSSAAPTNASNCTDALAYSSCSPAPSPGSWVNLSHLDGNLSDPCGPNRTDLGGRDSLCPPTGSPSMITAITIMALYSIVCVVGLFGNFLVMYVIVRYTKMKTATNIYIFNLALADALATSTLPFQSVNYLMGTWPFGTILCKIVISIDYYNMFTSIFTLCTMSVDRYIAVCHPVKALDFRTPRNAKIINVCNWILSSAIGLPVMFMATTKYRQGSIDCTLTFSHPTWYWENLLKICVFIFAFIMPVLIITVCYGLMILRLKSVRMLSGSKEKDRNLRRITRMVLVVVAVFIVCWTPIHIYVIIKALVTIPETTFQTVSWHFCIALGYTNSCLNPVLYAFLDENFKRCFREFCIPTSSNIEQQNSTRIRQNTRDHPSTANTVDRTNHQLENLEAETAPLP
Sequence of Sodium-dependent noradrenaline transporter (P23975 whole entry): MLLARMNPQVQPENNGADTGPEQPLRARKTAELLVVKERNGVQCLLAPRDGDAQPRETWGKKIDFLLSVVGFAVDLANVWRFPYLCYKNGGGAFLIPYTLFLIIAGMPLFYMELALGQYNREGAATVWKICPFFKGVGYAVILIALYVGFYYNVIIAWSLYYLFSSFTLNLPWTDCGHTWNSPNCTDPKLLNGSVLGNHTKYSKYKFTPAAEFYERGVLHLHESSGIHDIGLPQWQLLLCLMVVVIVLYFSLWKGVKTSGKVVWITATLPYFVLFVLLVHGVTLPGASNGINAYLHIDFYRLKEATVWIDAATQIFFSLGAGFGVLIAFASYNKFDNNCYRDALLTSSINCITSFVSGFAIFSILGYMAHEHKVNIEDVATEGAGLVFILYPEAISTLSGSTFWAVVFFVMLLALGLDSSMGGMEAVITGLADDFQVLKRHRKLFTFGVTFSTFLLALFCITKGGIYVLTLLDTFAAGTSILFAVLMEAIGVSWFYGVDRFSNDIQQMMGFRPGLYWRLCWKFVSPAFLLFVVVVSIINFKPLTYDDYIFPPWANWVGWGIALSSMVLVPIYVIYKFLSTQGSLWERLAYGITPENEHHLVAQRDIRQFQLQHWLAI

Take `CO[C@]1(c2cccc(O)c2)CCCC[C@@H]1CN(C)C`: the IC50 on Mu-type opioid receptor is 0.056 µM; in data set [1] it was 10 µM; in data set [2], 0.525 µM. In addition, the remaining at 1 h in [3] came to 88%; in [4] it was 74%; in [5], 104%; in [6], 98%.
For the compound `CO[C@]1(c2cccc(C#N)c2)CCCC[C@@H]1CN(C)C`, the IC50 was > 10 µM on Mu-type opioid receptor, 6.24 µM in data set [1] and 4.49 µM in data set [2]. The remaining at 1 h turned out to be 69% in [3], 83% in [4], 89% in data set [5] and 94% in data set [6].
For the compound `CNC[C@H]1CCCC[C@]1(OC)c1cccc(O)c1` (stereo in doubt; 26), the values for the IC50 (at Mu-type opioid receptor; in data set [1]; in data set [2]) were 0.048 µM, 5.26 µM and > 10 µM, respectively.
Take `CO[C@@]1(c2ccccc2)CCCC[C@H]1CN(C)C`: the IC50 at Mu-type opioid receptor is > 10 µM; in data set [1] it was 3.88 µM; in [2], 1.56 µM. Also, the Time in the data set on Rattus norvegicus [7] was found to be 13 min. The compound also showed an ED50 with Rattus norvegicus [8] of 3.3 mg/kg.
Consider `COc1cccc(C2(O)CCCCC2CN(C)C)c1` (racemic) [TRAMADOL], for which the IC50 in data set [2] came to 3.86 µM. Moreover, the remaining at 1 h in [3] is 58%; in [4], 56%; in data set [5], 96%; in [6], 95%. In the data set with Rattus norvegicus [7], the Time is on record as 69 min. The compound also yielded an ED50 in the data set with Rattus norvegicus [8] of 11.3 mg/kg. This compound returned a bioavailability in data set [9] of 36%.
As to `CCCCO[C@]1(c2cccc(OC)c2)CCCC[C@@H]1CN(C)C`, the IC50 on Mu-type opioid receptor is 6.49 µM; in data set [1], 0.11 µM; in data set [2] it was 6.69 µM. The remaining at 1 h was found to be 3% in data set [3], 4% in data set [4], 9% in data set [5] and 10% in data set [6].
As for `CNC[C@@H]1CCCC[C@@]1(OC)c1cccc(O)c1`, the results for the IC50 (at Mu-type opioid receptor; in data set [1]; in [2]) were 0.084 µM, 1.05 µM and 9 µM, respectively.
Consider `COc1cccc([C@@]2(OC)CCCC[C@@H]2CN(C)C)c1` (racemic), for which the IC50 on Mu-type opioid receptor came to 7.87 µM; in [2], 0.161 µM. Besides, the remaining at 1 h in [3] is 17%; in [4], 12%; in [5], 82%; in data set [6] it was 85%. In addition, the Time in the data set on Rattus norvegicus [7] is on record as 20 min. In addition, the 50% effect level with Rattus norvegicus [8] (ED50) was put at a dose of 0.7 mg/kg. In data set [9], this compound gave a bioavailability of 11%.
Take `CO[C@]1(c2ccccc2)CCCC[C@@H]1CN(C)C` (stereo in doubt; 28): the IC50 at Mu-type opioid receptor is 2.59 µM; in [1], 2.96 µM; in [2], 1.52 µM. Also, the Activity result in the data set with Rattus norvegicus [10] is “Toxic”.
As to `CN(C)C[C@H]1CCCC[C@]1(O)c1cccc(O)c1` (racemic) [O-DESMETHYL TRAMADOL], in data set [2], the IC50 is > 10 µM. Further, the Time in the data set on Rattus norvegicus [7] amounted to 2 min.
With `COc1cccc([C@@]2(OCC3CC3)CCCC[C@@H]2CN(C)C)c1`, the IC50 amounted to 7.67 µM on Mu-type opioid receptor, 0.025 µM in [1] and 3.78 µM in data set [2]. Also, the remaining at 1 h amounted to 3% in data set [3], 6% in data set [4], 29% in data set [5] and 35% in [6].
As to `CCCCO[C@]1(c2cccc(O)c2)CCCC[C@@H]1CN(C)C`, the IC50 on Mu-type opioid receptor was 0.097 µM; in [1] it was 2.74 µM; in data set [2], > 10 µM.
For `CCCO[C@]1(c2cccc(O)c2)CCCC[C@@H]1CN(C)C`, in that order: 0.19 µM, 2.8 µM and 6.25 µM.
As to `CCCO[C@]1(c2cccc(OC)c2)CCCC[C@@H]1CN(C)C`, the results for the IC50 (at Mu-type opioid receptor; in [1]; in data set [2]) were 7.9 µM, 0.025 µM and 3.87 µM, respectively.
On to `CNCC1CCCCC1(OC)c1cccc(OC)c1` (racemic), for which the IC50 at Mu-type opioid receptor was > 10 µM; in data set [2], 3.87 µM. Moreover, the remaining at 1 h is 31% in data set [3], 26% in data set [4], 77% in [5] and 76% in data set [6]. The same compound gave an ED50 in the data set on Rattus norvegicus [8] of 2.9 mg/kg.
For `CCO[C@]1(c2cccc(O)c2)CCCC[C@@H]1CN(C)C`, the figures for the IC50 (on Mu-type opioid receptor; in [1]; in [2]) were 0.13 µM, 1.42 µM and 3.78 µM, respectively.
Consider `CCO[C@]1(c2cccc(OC)c2)CCCC[C@@H]1CN(C)C`, for which the IC50 at Mu-type opioid receptor is > 10 µM; in data set [1] it was 0.181 µM; in [2], 1.01 µM.
Turning to `COc1cccc([C@@]2(OCCO)CCCC[C@@H]2CN(C)C)c1`, the IC50 (at Mu-type opioid receptor; in data set [1]; in data set [2]) was > 10 µM each time.
With `CNC[C@H]1CCCC[C@]1(OC)c1cccc(O)c1` (stereo in doubt; 23), the IC50 on Mu-type opioid receptor stood at 0.122 µM; in [1] it was 6.92 µM; in data set [2], 2.25 µM. For the same compound, the remaining at 1 h in data set [3] turned out to be 86%; in [4], 82%; in data set [5], 103%; in data set [6] it was 108%.
In the case of `CNC[C@@H]1CCCC[C@@]1(OC)c1cccc(OC)c1`, the IC50 on Mu-type opioid receptor was > 10 µM; in data set [2], 0.898 µM. The Time in the data set on Rattus norvegicus [7] is on record as 27 min. This compound gave an ED50 with Rattus norvegicus [8] of 3.1 mg/kg.
On to `CN(C)C[C@H]1CCCC[C@]1(OCCO)c1cccc(O)c1`, for which the figures for the IC50 (at Mu-type opioid receptor; in data set [1]; in [2]) were 0.19 µM, 1.5 µM and 5.95 µM, respectively.
Regarding `COc1cccc([C@@]2(OCCCO)CCCC[C@@H]2CN(C)C)c1`, the IC50 came out at 8 µM at Mu-type opioid receptor, 1.49 µM in data set [1] and 3.86 µM in data set [2].
With `CNC[C@H]1CCCC[C@]1(OC)c1cccc(OC)c1`, the IC50 (on Mu-type opioid receptor; in data set [2]) was > 10 µM in each case. In the data set with Rattus norvegicus [10], the Activity result is reported as “Toxic”.
Take `CN(C)C[C@H]1CCCC[C@]1(OCC1CC1)c1cccc(O)c1`: the IC50 at Mu-type opioid receptor was 0.13 µM; in data set [1], 3.67 µM; in data set [2], > 10 µM.
In the case of `CO[C@]1(c2ccccc2)CCCC[C@@H]1CN(C)C` (stereo in doubt; 14), the results for the IC50 (at Mu-type opioid receptor; in data set [1]; in data set [2]) were 4.75 µM, 2.53 µM and 3.79 µM, respectively. Moreover, the remaining at 1 h in [3] was determined as 56%; in [4] it was 61%; in [5], 96%; in data set [6], 101%.

The values above are taken from ChEMBL document CHEMBL1141623 (Bioorg Med Chem Lett, 2008).
